Experimental data reported in ChEMBL document CHEMBL1201862, “PubChem BioAssay data set” (2004).
The source made the active and inactive calls.

How the values were obtained:
Galanin receptor type 3 = Galanin receptor type 3 (Homo sapiens, UniProt O60755); assay: Fluorescence-based cell-based primary high throughput dose response assay to identify antagonists of the Galanin Receptor 3 (GalR3).; assay type: functional
cells = assay type: functional, cell-based; settings: HEK-CNG
Cytochrome P450 2D6 = Cytochrome P450 2D6 (Homo sapiens, UniProt P10635);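 note: CYP2D6 member of a cytochrome P450 panel assay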
Cytochrome P450 3A4 = Cytochrome P450 3A4 (Homo sapiens, UniProt P08684);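 note: CYP3A4 tested as one member of a cytochrome P450 panel screen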
Cytochrome P450 2C9 = Cytochrome P450 2C9 (Homo sapiens, UniProt P11712)
HEK293 [1] = assay: cells; settings: Homo sapiens
HEK293 [2] = assay: cells; settings: Homo sapiens; remark: listed apart in the source
[3] = molecular target: T1, Replicative DNA helicase DnaB (Mycobacterium tuberculosis, UniProt P9WMR3); assay: DnaB intein splicing inhibitors, dose response, biochemical, cell-free fluorescence (AID 449749); assay type: functional
T1 sequence (P9WMR3 whole entry): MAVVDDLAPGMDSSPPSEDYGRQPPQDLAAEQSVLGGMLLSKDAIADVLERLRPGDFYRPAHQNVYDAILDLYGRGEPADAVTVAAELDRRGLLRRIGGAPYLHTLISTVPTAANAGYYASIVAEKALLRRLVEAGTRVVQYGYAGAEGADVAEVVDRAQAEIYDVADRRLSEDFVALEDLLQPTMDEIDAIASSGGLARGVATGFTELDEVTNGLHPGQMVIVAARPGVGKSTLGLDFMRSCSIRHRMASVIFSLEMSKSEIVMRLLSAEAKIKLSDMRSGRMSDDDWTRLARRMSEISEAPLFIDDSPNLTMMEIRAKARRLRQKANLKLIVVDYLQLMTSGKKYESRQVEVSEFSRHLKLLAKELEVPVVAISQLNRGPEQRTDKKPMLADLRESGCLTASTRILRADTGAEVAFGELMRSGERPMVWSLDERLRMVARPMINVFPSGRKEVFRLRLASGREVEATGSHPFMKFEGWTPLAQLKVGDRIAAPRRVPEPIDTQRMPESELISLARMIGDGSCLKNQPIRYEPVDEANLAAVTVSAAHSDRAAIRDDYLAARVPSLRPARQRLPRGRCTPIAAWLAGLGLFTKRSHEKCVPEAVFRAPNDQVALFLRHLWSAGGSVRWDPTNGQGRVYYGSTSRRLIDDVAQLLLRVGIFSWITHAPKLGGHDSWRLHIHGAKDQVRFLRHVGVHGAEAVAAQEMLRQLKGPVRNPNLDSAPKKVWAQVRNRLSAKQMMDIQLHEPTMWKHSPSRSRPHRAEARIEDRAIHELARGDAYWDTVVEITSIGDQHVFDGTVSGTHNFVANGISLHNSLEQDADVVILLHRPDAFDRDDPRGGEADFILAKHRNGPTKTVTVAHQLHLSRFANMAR

Protein RecA = molecular target: T2, Protein RecA (Mycobacterium tuberculosis, UniProt P9WHJ3); assay: Fluorescence Cell-Free Homogeneous Dose Retest to Identify Inhibitors of RecA-Intein Splicing Activity. [Related pubchem assays (depositor defined):AID2097, AID2223, AID489010, AID492950]; assay type: functional
T2 sequence (P9WHJ3 whole entry): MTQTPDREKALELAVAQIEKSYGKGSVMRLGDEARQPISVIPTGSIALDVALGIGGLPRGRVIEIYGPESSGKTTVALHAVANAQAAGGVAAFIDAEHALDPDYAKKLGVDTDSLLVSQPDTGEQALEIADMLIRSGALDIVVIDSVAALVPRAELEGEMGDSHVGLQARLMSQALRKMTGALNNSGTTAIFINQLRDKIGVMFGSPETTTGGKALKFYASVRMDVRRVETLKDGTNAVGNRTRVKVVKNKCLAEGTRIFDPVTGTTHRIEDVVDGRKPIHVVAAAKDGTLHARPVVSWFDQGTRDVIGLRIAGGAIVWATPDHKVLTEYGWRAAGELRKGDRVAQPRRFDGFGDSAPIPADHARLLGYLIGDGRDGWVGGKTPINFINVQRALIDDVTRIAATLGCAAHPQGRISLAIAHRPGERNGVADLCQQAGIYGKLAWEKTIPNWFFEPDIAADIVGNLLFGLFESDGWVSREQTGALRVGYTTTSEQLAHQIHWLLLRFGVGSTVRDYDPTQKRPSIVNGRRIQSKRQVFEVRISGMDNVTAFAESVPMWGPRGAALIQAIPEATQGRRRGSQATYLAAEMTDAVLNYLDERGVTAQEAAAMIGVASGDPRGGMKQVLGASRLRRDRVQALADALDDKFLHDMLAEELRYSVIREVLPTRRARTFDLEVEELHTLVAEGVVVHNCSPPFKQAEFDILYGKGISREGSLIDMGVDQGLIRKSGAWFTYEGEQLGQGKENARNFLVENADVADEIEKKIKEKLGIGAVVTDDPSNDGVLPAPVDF

[4] = molecular target: SWI/SNF-related matrix-associated actin-dependent regulator of chromatin subfamily A member 2 (Homo sapiens, UniProt P51531); assay: Luminescence-based cell-based high throughput dose response assay to identify activators of the function of SWI/SNF related, matrix associated, actin dependent regulator of chromatin, subfamily a, member 2 (SMARCA2, BRM).; assay type: functional
[5] = Counterscreen for activators of the function of SWI/SNF related, matrix associated, actin dependent regulator of chromatin, subfamily a, member 2 (SMARCA2, BRM): Luminescence-based cell-based high throughput dose response assay to identify non-selective compounds using the VP16 reporter assay.; assay type: functional
[6] = molecular target: Fructose-bisphosphate aldolase (Mycobacterium tuberculosis, UniProt P9WQA3); assay: Fluorescence-based biochemical high throughput dose response assay for inhibitors of the fructose-bisphosphate aldolase (FBA) of M. tuberculosis.; assay type: functional
[7] = molecular target: T3, Methionyl-tRNA synthetase, putative (Trypanosoma brucei brucei, UniProt Q38C91); assay type: functional, Trypanosoma brucei brucei strain 927/4 GUTat10.1
T3 sequence (Q38C91 whole entry): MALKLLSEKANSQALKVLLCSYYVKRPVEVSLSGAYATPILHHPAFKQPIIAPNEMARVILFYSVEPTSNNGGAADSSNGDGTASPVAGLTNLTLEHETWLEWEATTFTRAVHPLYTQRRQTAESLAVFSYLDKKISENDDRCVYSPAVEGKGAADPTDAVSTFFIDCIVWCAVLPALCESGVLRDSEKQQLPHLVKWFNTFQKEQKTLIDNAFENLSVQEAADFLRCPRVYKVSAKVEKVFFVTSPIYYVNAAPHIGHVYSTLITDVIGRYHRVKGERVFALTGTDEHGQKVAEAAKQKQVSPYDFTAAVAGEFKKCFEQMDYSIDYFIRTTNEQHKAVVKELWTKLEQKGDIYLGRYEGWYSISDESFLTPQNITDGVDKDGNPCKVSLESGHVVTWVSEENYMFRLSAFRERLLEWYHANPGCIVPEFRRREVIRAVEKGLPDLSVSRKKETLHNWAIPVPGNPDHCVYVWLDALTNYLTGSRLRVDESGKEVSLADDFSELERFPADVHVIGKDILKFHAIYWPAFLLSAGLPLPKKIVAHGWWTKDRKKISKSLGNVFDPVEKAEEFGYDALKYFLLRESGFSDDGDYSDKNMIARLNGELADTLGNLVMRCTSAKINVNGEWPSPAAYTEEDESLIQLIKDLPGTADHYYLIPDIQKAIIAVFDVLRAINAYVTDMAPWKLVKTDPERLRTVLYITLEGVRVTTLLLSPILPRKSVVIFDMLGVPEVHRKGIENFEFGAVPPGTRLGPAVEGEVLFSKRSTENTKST

[8] = Counterscreen for inhibitors of Trypanosoma brucei methionyl tRNA synthetase (MetRS): Luminescence-based cell-based high throughput dose response assay to identify compounds that are cytotoxic to Jurkat human T lymphocyte cells.; assay type: functional
[9] = molecular target: T3, Methionyl-tRNA synthetase, putative; assay type: functional, Trypanosoma brucei brucei strain 927/4 GUTat10.1; remark: listed apart in the source

Cytochrome P450 3A4, sequence (P08684 whole entry): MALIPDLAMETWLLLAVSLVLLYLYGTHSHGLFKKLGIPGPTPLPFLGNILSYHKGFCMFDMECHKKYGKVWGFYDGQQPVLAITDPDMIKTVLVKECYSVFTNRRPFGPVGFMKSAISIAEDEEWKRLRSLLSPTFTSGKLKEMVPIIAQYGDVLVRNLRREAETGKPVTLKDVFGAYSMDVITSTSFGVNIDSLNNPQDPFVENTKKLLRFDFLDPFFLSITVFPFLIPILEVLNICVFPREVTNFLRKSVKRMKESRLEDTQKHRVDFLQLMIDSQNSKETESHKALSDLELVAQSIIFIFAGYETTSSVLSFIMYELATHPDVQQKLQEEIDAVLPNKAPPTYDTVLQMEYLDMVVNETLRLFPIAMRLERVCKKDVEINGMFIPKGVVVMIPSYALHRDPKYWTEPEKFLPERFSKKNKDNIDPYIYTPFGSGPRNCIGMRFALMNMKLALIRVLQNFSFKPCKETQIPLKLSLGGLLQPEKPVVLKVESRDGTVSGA
Cytochrome P450 2C9, sequence (P11712 whole entry): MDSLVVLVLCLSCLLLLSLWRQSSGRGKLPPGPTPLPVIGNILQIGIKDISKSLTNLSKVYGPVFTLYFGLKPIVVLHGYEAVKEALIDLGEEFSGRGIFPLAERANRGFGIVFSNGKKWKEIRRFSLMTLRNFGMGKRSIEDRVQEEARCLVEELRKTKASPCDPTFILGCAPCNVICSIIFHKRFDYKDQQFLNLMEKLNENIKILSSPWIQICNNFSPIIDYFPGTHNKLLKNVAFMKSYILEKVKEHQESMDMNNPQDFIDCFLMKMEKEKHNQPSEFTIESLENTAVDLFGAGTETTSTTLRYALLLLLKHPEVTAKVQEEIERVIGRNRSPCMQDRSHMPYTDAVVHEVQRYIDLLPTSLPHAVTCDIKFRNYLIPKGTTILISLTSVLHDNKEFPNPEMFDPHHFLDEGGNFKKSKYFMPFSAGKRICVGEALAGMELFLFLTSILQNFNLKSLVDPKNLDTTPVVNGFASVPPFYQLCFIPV
Fructose-bisphosphate aldolase, sequence (P9WQA3 whole entry): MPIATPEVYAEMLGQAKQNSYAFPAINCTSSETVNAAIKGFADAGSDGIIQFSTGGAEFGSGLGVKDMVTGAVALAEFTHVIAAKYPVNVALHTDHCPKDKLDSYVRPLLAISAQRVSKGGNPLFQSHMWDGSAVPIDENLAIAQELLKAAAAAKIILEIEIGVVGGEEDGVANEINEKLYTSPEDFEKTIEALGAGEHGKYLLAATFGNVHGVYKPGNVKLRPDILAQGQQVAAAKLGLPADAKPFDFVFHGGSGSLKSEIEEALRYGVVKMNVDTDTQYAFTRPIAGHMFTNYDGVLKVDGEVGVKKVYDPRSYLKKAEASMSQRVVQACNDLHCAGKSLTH
SWI/SNF-related matrix-associated actin-dependent regulator of chromatin subfamily A member 2, sequence (P51531 whole entry): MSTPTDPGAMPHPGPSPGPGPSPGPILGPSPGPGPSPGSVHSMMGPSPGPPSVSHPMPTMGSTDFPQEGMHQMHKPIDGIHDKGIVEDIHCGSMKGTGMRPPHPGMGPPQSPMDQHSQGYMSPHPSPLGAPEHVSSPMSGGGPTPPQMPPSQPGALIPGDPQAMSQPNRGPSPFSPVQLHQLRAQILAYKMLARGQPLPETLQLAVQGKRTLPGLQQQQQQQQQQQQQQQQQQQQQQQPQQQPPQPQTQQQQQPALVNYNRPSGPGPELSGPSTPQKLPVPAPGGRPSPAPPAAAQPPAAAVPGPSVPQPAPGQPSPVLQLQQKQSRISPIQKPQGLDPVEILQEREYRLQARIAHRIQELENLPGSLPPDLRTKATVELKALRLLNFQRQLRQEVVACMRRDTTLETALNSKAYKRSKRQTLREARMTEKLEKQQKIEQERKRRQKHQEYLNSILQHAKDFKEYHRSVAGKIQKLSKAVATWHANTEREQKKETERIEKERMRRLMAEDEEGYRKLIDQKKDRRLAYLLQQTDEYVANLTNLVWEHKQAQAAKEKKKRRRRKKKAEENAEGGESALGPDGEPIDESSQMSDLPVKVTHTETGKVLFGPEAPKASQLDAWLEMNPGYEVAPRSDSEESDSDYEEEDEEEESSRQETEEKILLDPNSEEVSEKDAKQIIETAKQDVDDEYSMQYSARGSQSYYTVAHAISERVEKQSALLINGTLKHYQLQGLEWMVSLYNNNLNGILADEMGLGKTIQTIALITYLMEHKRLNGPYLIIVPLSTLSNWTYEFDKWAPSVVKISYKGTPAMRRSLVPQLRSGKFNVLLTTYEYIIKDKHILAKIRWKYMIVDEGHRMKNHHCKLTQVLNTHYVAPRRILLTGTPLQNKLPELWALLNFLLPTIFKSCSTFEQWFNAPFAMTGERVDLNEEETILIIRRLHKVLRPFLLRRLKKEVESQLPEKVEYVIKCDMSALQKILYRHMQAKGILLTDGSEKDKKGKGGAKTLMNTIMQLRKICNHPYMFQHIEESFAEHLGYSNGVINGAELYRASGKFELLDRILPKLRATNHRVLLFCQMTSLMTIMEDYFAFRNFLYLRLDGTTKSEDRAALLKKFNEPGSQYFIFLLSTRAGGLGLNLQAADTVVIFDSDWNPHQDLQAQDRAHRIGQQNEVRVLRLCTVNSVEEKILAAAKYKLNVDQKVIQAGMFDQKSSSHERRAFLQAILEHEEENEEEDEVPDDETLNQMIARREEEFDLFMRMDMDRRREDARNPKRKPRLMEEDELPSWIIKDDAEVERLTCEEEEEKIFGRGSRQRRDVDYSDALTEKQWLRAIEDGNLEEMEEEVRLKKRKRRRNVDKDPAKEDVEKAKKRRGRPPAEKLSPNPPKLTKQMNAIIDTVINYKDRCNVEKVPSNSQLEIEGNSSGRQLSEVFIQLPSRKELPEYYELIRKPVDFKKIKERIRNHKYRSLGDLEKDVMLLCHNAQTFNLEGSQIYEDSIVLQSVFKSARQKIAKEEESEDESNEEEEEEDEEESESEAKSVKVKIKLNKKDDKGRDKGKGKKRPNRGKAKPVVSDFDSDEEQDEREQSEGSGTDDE
Cytochrome P450 2D6, sequence (P10635 whole entry): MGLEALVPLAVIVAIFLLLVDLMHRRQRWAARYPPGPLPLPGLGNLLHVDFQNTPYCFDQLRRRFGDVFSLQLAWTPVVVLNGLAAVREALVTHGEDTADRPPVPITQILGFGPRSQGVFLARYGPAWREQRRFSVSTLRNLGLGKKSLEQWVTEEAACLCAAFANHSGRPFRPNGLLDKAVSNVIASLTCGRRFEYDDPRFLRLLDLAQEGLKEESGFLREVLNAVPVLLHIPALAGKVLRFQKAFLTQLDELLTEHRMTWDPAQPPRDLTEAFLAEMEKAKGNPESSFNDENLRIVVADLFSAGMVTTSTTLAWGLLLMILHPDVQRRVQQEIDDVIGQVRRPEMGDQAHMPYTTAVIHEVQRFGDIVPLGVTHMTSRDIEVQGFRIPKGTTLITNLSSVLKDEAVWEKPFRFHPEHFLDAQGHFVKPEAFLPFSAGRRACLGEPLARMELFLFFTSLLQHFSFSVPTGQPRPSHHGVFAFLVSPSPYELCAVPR
Galanin receptor type 3, sequence (O60755 whole entry): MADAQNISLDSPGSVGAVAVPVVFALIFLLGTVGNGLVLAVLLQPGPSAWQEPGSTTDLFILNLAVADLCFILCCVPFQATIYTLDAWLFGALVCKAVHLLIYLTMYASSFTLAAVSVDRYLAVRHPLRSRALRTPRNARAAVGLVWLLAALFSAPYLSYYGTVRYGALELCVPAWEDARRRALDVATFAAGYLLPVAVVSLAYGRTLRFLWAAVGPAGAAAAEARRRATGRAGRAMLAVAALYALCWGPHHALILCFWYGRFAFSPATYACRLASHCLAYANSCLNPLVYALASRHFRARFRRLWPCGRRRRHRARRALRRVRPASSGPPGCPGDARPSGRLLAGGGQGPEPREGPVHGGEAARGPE

Q: For `N#CCSc1nc(N)c(C#N)c(C2CCCCC2)c1C#N`, which IC50 (Galanin receptor type 3) is on record?
A: Its IC50 is 2.17 µM (active).

Q: What about the EC50 (cells) of the same compound?
A: The EC50 was > 29.9 µM (inactive).

Q: And the AC50 (Cytochrome P450 2D6)?
A: The AC50 was 39.8 µM (inconclusive).

Q: What about the AC50 (Cytochrome P450 3A4) of the same compound?
A: The AC50 was 3.16 µM (inconclusive).

Q: What about the AC50 (Cytochrome P450 2C9) of the same compound?
A: Its AC50 is 12.6 µM (inconclusive).

Q: And the EC50 (HEK293 [1])?
A: The EC50 was > 59.6 µM (inactive).

Q: And the EC50 (HEK293 [2])?
A: Its EC50 is > 59.6 µM (inactive).

Q: Which AC50 [3] does the source give for `Brc1ccc(Cn2c(-c3ccc(Br)o3)nc3ccccc32)o1` here?
A: Its AC50 is 147 µM (active).

Q: And the EC50 (Protein RecA)?
A: The EC50 was 9.48 µM (active).

Q: And the EC50 [4]?
A: Its EC50 is > 91.2 µM (inactive).

Q: And the EC50 [5]?
A: The EC50 was > 91.2 µM (inactive).

Q: With `CCc1cc(=O)oc2cc(C)cc(OC(C)C(=O)NC3CCN(Cc4ccccc4)CC3)c12` (stereo not given) as the compound, how does the IC50 [6] read?
A: Its IC50 is 1.52 µM (active).

Q: Which results are given for `O=C(NCCc1ccc(Cl)cc1)Nc1ccc(Cl)cc1`?
A: IC50 [7]: 119 µM (inactive); IC50 [8]: 83.3 µM (inactive); IC50 [9]: 2.58 µM (active)
